Assay results published in patent publication US20150132328A1 (priority 2011, published 2015).
Read-outs that look alike come from different tables or passages of the source.

Legend:
BMK-16myc cells tumor = conditions: for Metastases (animals with detected metastases/total number of animals): Tumor + IMMP
Excerpt: We used BMK-16myc cells which are baby mouse kidney cells immortalized with genes of 16 protein of the human papilloma virus (HPV) and the myc gene, which grow in mouse, are highly invasive and produce metastases rapidly. One million cells were implanted subcutaneously in the back of each mouse. […] Subsequently, the animals were sacrificed and the tumors under the back skin as well as thymus, spleen, liver and kidney were collected for histopathological examination.

THP-1 cells = conditions: IMMP 10^−10M, no cortisone

Substance: Peptide LEDGPKFL + Zinc [IMMP]
- Metastases (animals with detected metastases/total number of animals) (BMK-16myc cells tumor; Kidney): 0/5
- Metastases (animals with detected metastases/total number of animals) (BMK-16myc cells tumor; Liver): 3/5
- Metastases (animals with detected metastases/total number of animals) (BMK-16myc cells tumor; Spleen, 200 ng Kg i.p., 10 doses): 0/5
- Metastases (animals with detected metastases/total number of animals) (BMK-16myc cells tumor; Thymus): 0/5
- Animals in which development of metastasis was reduced (BMK-16myc cells tumor; mouse, in vivo): 40%
- Tumor size vs untreated group (BMK-16myc cells tumor; tendency to smaller tumors): not statistically significant
- Animals with metastases in liver (BMK-16myc cells tumor; tumor + IMMP (100% untreated)): 60%
- Cell Viability (% with respect to the control) (THP-1 cells): 180 ± 5%
